# Patent US9603843B2, “Kits and methods for treating post traumatic stress disorder (PTSD) and hot flashes” (CAD MEDICAL SOLUTIONS, LLC, priority 2013, dated 2017)
# Read-outs that look alike come from different tables or passages of the source.
# Legend:
# dogs = details: cited from earlier work
# [1] = cited from earlier work
# PTSD = details: Navy study, ultrasound guidance, not xray guidance; cited from earlier work
# patient having PTSD = details: patient treated with CB without and with clonidine
# Source text: The procedure involved a local anesthetic mixed with clonidine delivered by a shot in the patient's neck in a procedure that is similar to an epidural given to women in labor.
# peripheral nerve blocks = details: cited from earlier work
# [2] = group 1: left SGB, 0.5% mepivacaine 1 ml
structure (smiles),measurement,setting,value
Cc1cccc(C)c1NC(=O)C1CCCCN1C (centres unmarked) [mepivacaine],left brachial artery blood flow (BABF) after left SGB,dogs; group 1: 0.5% mepivacaine 1 ml,increased significantly
same,right BABF after left SGB,dogs; group 1: 0.5% mepivacaine 1 ml,decreased significantly
same,heart rate (HR),dogs; [2],no significant change
same,mean arterial pressure (MAP),dogs; [2],no significant change
CCCCN1CCCCC1C(=O)Nc1c(C)cccc1C (centres unmarked) [bupivacaine],solubility,[1]; 95 percent ethanol,freely soluble
same,solubility,[1]; chloroform or acetone,slightly soluble
same,solubility,[1]; water,soluble
"CCCN1CCCC[C@H]1C(=O)Nc1c(C)cccc1C [Ropivacaine, ropivacaine]",RCSGI versus placebo,PTSD,no difference
Clc1cccc(Cl)c1N=C1NCCN1 [clonidine],patient-reported result with clonidine over the local anesthetic alone,patient having PTSD,significantly more effective result
same,duration of analgesia and anesthesia,peripheral nerve blocks; adjunct to intermediate-acting local anesthetics for some peripheral nerve blocks,improves
same,side-effects,peripheral nerve blocks; doses up to 150 µg,limited
